Patent publication US20120022121A1, “INDOLES, DERIVATIVES AND ANALOGS THEREOF AND USES THEREFOR” (priority 2007, published 2012)
Like-named read-outs stand apart in the source and are kept apart here. Values belong to the compound of their own block, whether it stands above or below them.

How the values were obtained:
HEK293-MRP2 = assay: Growth inhibition assay (96 h); type: cell-based, human; details: for resistance factor (ratio of IC50 resistant subline to parental cell line): HEK293-MRP2 vs HEK293-pcDNA3.1
HEK293-pcDNA3-10 = assay: Growth inhibition assay (96 h); type: cell-based, human; details: HEK293-pcDNA3-10 (control for BCRP)
Text: (§1) MTT (3-(4,5-dimethylthiazol-2-yl)-2,5-diphenyltetrazolium bromide) assay was also used for the leukemia cell lines. […] Cells were stained with SRB solution or MTT solution.

HEK293-pcDNA3.1 = assay: Growth inhibition assay (96 h); type: cell-based, human; details: HEK293-pcDNA3.1 (control for MRP)
Text: as §1

HEK293-MRP1 = assay: Growth inhibition assay (96 h); type: cell-based, human; details: for resistance factor (ratio of IC50 resistant subline to parental cell line): HEK293-MRP1 vs HEK293-pcDNA3.1
HEK293-482R2 = assay: Growth inhibition assay (96 h); type: cell-based, human; details: HEK293-482R2, BCRP over-expressed, 96 h
PC-3 xenograft = assay: Antitumor activity in PC-3 xenograft; type: in vivo, Balb/c mice; details: 15 mg/kg/d for 4 days
Procedure: PC-3 tumor cells (2×10^6 cells) were suspended in saline and injected S.C. in both flanks of recipient mice (n=15). Tumor size was measured every other day and volume calculated as V=π/6*(length)x(width)^2 (75). […] Tumor growth and body weight was monitored every other day for the remainder of the study.

K562 [1] = assay: Cell viability MTT assay, 96 h; type: cell-based; details: Homo sapiens
Procedure: (§2) Cells were seeded in 96-well plates and incubated with different concentrations of compound 13, 68 or other anticancer drugs for 96 h. Cell viability was quantitated by MTT assay. […] Table 4 is a comparison of the IC50 of compounds 13, 68 and other anticancer drugs in the K562 and doxorubicin-resistant K562/DOX cell lines.

K562/Dox [2] = assay: Cell viability MTT assay, 96 h; type: cell-based; details: Homo sapiens, doxorubicin-resistant
Procedure: as §2

HT-29 [3] = details: HT-29 cells, literature value (Rose 1995); cited from earlier work
MCF-7 [4] = details: MCF-7 cells, literature value (Rose 1995); cited from earlier work
PC-3 xenografts = assay: In vivo antitumor efficacy, PC-3 xenograft; details: 5 mg/kg
MES-SA/DX5 xenografts = assay: In vivo antitumor efficacy, MES-SA/DX5 xenograft; details: MES-SA/DX5 xenograft, 5 mg/kg, q2d, i.p.
Procedure: (§3) The control group was treated with vehicle (10% DMSO in PEG300).

[5] = tested on: MRP2 (over-expressed in the cells); assay: Growth inhibition assay (96 h); type: cell-based, human; details: human, HEK293 cells over-expressing MRP2 (HEK293-MRP2); HEK293-MRP2, MRP2 over-expressed, 96 h
MES-SA/DX5 = assay: Growth inhibition assay (96 h); type: cell-based, human; details: MES-SA/DX5 vs MES-SA (P-gp)
Text: as §1

HT-29 [6] = assay: Growth inhibition assay (SRB, 96 h); type: cell-based; details: Homo sapiens, HT-29, 96 h
Text: as §1

MCF-7 [7] = assay: Growth inhibition assay (SRB, 96 h); type: cell-based; details: Homo sapiens, MCF7; MCF-7, 96 h
Text: as §1

TSU-Pr1 = assay: Growth inhibition assay (SRB, 96 h); type: cell-based; details: Homo sapiens, TSU-Pr1, 96 h
Text: as §1

[8] = tested on: MRP1 (over-expressed in the cells); assay: Growth inhibition assay (96 h); type: cell-based, human; details: human, HEK293 cells over-expressing MRP1 (HEK293-MRP1); HEK293-MRP1, MRP1 over-expressed, 96 h
PC-3 cells [9] = assay: Indirect immunofluorescence microscopy of microtubules; type: cell-based, human; details: 24 h, anti-α-tubulin-FITC
Procedure: PC-3 cells were plated on poly-D-lysine coated glass cover slips in 6-well plates (5×10^4 cells/well) the day before treatment. After cells were incubated with cytotoxic agents at 37° C. for 24 h, cells were fixed on the cover slips with 4% formaldehyde in PBS for 10 min and permeabilized by 2% Triton-X in PBS for 5 min at rt. Fixed cells were blocked with 3% bovine serum albumin in TBST for 30 min and incubated with anti-α-tubulin-FITC antibody (1:100 dilution) at 4° C. overnight. Cover slips were mounted on slides using mounting medium with 4′,6-diamidino-2-phenylindole (DAPI), followed by microscopic analysis with a Zeiss Axioplan 2 fluorescent microscope (Carl Zeiss, Thornwood, N.Y.). Images were acquired with a Zeiss Axiocam HRc, using Zeiss AxioVision.

[10] = tested on: human cancer cell lines from prostate, colon, breast, and bladder; assay: Cell proliferation by SRB assay, panel of cell lines; type: cell-based; details: read-out: IC50 values, range over cell lines
Procedure: as §1
Cell proliferation was measured by SRB assay.

PC-3 cells [11] = assay: Cell cycle analysis (PI staining, FACS); type: cell-based, human; details: Homo sapiens; PC-3, 24 h, 0.1 nM to 1 μM; read-out: EC50 of cell cycle arrest in G2M phase
Procedure: Cell cycle distribution was determined by propidium iodide (PI) staining. Treated cells were washed with PBS and fixed with 70% ice-cold ethanol overnight. Fixed cells were then stained with 20 μg/mL of PI in the presence of RNase A (300 μg/mL) at 37° C. for 30 min. Cell cycle distribution was analyzed by fluorescence-activated cell sorting (FACS).

PC-3 = assay: Growth inhibition assay (SRB, 96 h); type: cell-based, human; details: Homo sapiens, PC-3, 96 h
Text: as §1

K562/Dox [12] = assay: Growth inhibition assay (MTT, 96 h); type: cell-based, human
Text: as §1

K562 [13] = assay: Growth inhibition assay (MTT, 96 h); type: cell-based; details: Homo sapiens, K562 (parental)
Text: as §1

MES-SA xenografts = assay: In vivo antitumor efficacy, MES-SA xenograft; design: species or system mice; details: 5 mg/kg, q2d, i.p.
Procedure: as §3

Structure (SMILES): CCc1c2c(nc3ccc(O)cc13)-c1cc3c(c(=O)n1C2)COC(=O)[C@]3(O)CC [SN-38]
- IC50 (HEK293-MRP2; HEK293-MRP2, MRP2 over-expressed, 96 h): 12.4 ± 1 nM
- IC50 (HEK293-pcDNA3-10): 2.9 ± 0.3 nM
- IC50 (HEK293-pcDNA3.1): 8.4 ± 1 nM
- IC50 (HEK293-MRP1; HEK293-MRP1, MRP1 over-expressed, 96 h): 17.7 ± 1 nM
- IC50 (HEK293-482R2): 94.3 ± 20 nM

- IC50 (K562 [1]): 12.2 ± 0.2 nM
- IC50 (K562/Dox [2]): 1480 ± 480 nM
Structure (SMILES): CC(=O)O[C@H]1C(=O)[C@@]2(C)[C@H]([C@H](OC(=O)c3ccccc3)[C@]3(O)C[C@H](OC(=O)[C@H](O)[C@@H](NC(=O)c4ccccc4)c4ccccc4)C(C)=C1C3(C)C)[C@]1(OC(C)=O)CO[C@@H]1C[C@@H]2O [Taxol]
- PC-3 xenograft growth (PC-3 xenograft): potently suppressed
- body weight (PC-3 xenograft): significant decreases in body weight
- IC50 (HT-29 [3]): ~2.5 nM
- IC50 (MCF-7 [4]): ~2.5 nM

Structure (SMILES): CC(=O)O[C@@]12CO[C@@H]1C[C@H](O)[C@@]1(C)C(=O)[C@H](O)C3=C(C)[C@@H](OC(=O)[C@H](O)[C@@H](NC(=O)OC(C)(C)C)c4ccccc4)C[C@@](O)([C@@H](OC(=O)c4ccccc4)[C@H]21)C3(C)C [Docetaxel]
- end of study survival rate (PC-3 xenografts; PC-3 xenograft, 2 days/week): less than 30%
- mice survived after 3 weeks (PC-3 xenografts; male, nu/nu, mouse, in vivo, 3 weeks): 70%
- TGI (tumor growth inhibition) (MES-SA/DX5 xenografts): 9%
- resistance factor (ratio of IC50 resistant subline to parental cell line) (HEK293-MRP2): (7.6)
- resistance factor (ratio of IC50 resistant subline to parental cell line) (HEK293-MRP2; listed as docetaxel): 7.6
- IC50 at 96 h [5]: 33.1 ± 4 nM
- resistance factor (ratio of IC50 resistant subline to parental cell line) (MES-SA/DX5): (13)
- IC50 (HEK293-pcDNA3.1; Homo sapiens): 4.4 ± 2 nM
- IC50 (HT-29 [6]): 4.1 ± 0.2 nM
- IC50 (MCF-7 [7]): 3.8 ± 0.8 nM
- IC50 (TSU-Pr1): 2.6 ± 0.9 nM
- IC50 at 96 h [8]: 31.3 ± 5 nM
- resistance factor (ratio of IC50 resistant subline to parental cell line) (HEK293-MRP1): (7.2)
- resistance factor (ratio of IC50 resistant subline to parental cell line) (HEK293-MRP1; listed as docetaxel): 7.2
- microtubule changes by immunofluorescence (PC-3 cells [9]): stabilization of microtubules
- IC50 [10]: 1.1 to 6.3 nM
- EC50 (PC-3 cells [11]): 14 nM
- IC50 (PC-3): 6 nM
- IC50 (K562/Dox [12]; Homo sapiens, K562/Dox, P-gp over-expressed, 96 h): 548 ± 76 nM
- resistance factor (ratio of IC50 resistant subline to parental cell line) (K562/Dox [12]; K562/Dox vs K562 (P-gp)): (203)
- IC50 (K562 [13]): 2.7 ± 1 nM
- TGI (tumor growth inhibition) (MES-SA xenografts): 54%

- IC50 (K562 [1]): 27.1 ± 5.5 nM
- IC50 (K562/Dox [2]): 859 ± 26.8 nM
Structure (SMILES): COc1cccc2c1C(=O)c1c(O)c3c(c(O)c1C2=O)C[C@@](O)(C(=O)CO)C[C@@H]3O[C@H]1C[C@H](N)[C@H](O)[C@H](C)O1 [Doxirubicin]
